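Compound exposure: 48 hours, 5 concentrations, 96-well plates. Definition used: TGI = concentration required for complete inhibition of growth.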 *1 amine or outer side, *2 acyl side, *3 side chain or, on linkers, in order; H or OH if unused. Where a SMILES comes first, the peptide text is derived from it. Bridges are numbered along the chain shown (N, C = ends). Roman numbers before positions name the chains, in order. [ ]: non-standard residue; d: D form. The star is where a group is joined. Actinocin(9to1) = Cc1c2oc3c(C)ccc(C(=O)[*:1])c3nc-2c(C(=O)[*:2])c(N)c1=O; NMeV = CN[CH](C(=O)O)C(C)C; OSu = O=C1CCC(=O)N1O*; Sar = CNCC(=O)O

Assay in all cases: inhibition of tumour cell growth, NCI panel, 48 h
Test [1] relates to UO-31 renal.
Test [2] deals with SK-OV-3 ovarian.
For test [3], the system named is TK-10 renal.
Test [4] has as its system HT29 colon.
The subject of test [5] is SN12C renal.
In test [6] the test system is MALME-3M melanoma.
The subject of test [7] is IGROV1 ovarian.
In test [8] the test system is OVCAR-8 ovarian.

Take `C[C@]12[C@@H]3CC[C@H]1[C@@H](O)C(=O)N2CC3`: the TGI in test [1], in test [2], in test [3], in test [4], in test [5] and in test [6] was greater than 100 µM throughout. Moreover, the TGI in test [7] and in test [8] was greater than 100 µM throughout.
Take `Cc1c2oc3c(C)ccc(C(=O)NC4C(=O)NC(C(C)C)C(=O)N5CCCC5C(=O)N(C)CC(=O)N(C)C(C(C)C)C(=O)OC4C)c3nc-2c(C(=O)NC2C(=O)NC(C(C)C)C(=O)N3CCCC3C(=O)N(C)CC(=O)N(C)C(C(C)C)C(=O)OC2C)c(N)c1=O` (stereo unspecified) (I: TVP[Sar][NMeV] / II: TVP[Sar][NMeV]; ester I:1-I:C, II:1-II:C; linker I:N-II:N via Actinocin(9to1); configuration not given here): the TGI was 0.12 µM in test [1]; greater than 1 µM in test [2]; greater than 0.246 µM in test [3]; 0.00207 µM in test [4]; 0.0379 µM in test [5]; 0.0145 µM in test [6]. The TGI in test [7] was greater than 0.396 µM; in test [8] it was 0.00772 µM.
With `Cc1ccc(-[n+]2cc([O-])on2)cc1`, the TGI in test [1], in test [3], in test [4], in test [5], in test [6] and in test [7] was greater than 100 µM throughout. The compound also came in with a TGI in test [8] greater than 100 µM.
Turning to `Cc1cn(C2OC(CO[Si](C)(C)C(C)(C)C)C(N(C)O[Si](C)(C)C(C)(C)C)C2[Se]c2ccccc2)c(=O)[nH]c1=O` (stereo unspecified), the TGI is 13.7 µM in test [1]; greater than 100 µM in test [2]; 27.1 µM in test [3]; 16.8 µM in test [4]; greater than 100 µM in test [5]; 29.4 µM in test [6]. Also, the TGI came out at 28.2 µM in test [7] and 24.6 µM in test [8].
Turning to `O=C1/C(=C\c2ccc(Cl)cc2Cl)Sc2scc(-c3ccc(O)c(O)c3)[n+]21`, the TGI in test [1] was 26.8 µM; in test [2], 39.2 µM; in test [3], 38.8 µM; in test [4] it was 32.6 µM; in test [5] it was 30.3 µM; in test [7], 50.7 µM. This compound had a TGI in test [8] of 35.2 µM.
Take `CCCCCCc1cc2cc(-c3cn4ccsc4n3)c(=O)oc2cc1O`: the TGI in test [1], in test [2], in test [3], in test [4], in test [5] and in test [7] was greater than 100 µM each time. In test [8], this compound registered a TGI greater than 71.8 µM.
On to `CC1(C)[C@@H](Cn2cc(I)c(=O)[nH]c2=O)CC[C@@]1(C)CO`, for which the TGI in test [1], in test [2], in test [3] and in test [5] was greater than 100 µM in each case.
Take `COC(=O)CC(C)(NS(=O)c1ccc(C)cc1)c1ccccc1` (stereo unspecified): the TGI in test [1], in test [2], in test [3], in test [4], in test [5] and in test [6] was greater than 100 µM each time. Moreover, in test [7], the TGI was greater than 100 µM.
For `C[C@]12c3c4cc(NC(=O)C(=O)NCc5ccc(-c6ccccn6)nc5)cc3Oc3cc(NC(=O)C(=O)NCc5ccc(-c6ccccn6)nc5)cc(c31)OC1C=C(NC(=O)C(=O)NCc3ccc(-c5ccccn5)nc3)C=C(O4)C12` (stereo partly specified), the TGI in test [1] was 68.6 µM; in test [2], greater than 100 µM; in test [3] it was greater than 100 µM; in test [4], greater than 100 µM; in test [5], greater than 100 µM; in test [7] it was 40.6 µM. In test [8], this compound registered a TGI greater than 100 µM.
In the case of `NCCCCC(NC(=O)C(N)Cc1ccc(O)cc1)C(=O)NC(CCCCN)C(=O)NC(CCCCN)C(=O)ON1C(=O)CCC1=O` (stereo unspecified) (H-YKKK-OSu; configuration not given here), the TGI in test [1], in test [3], in test [4], in test [5], in test [6] and in test [7] was greater than 100 µM throughout. This compound also came in with a TGI in test [8] greater than 100 µM.
Regarding `CCN(CC)CCCNC(=O)c1cc(-c2nccn2C)nc2ccccc12`, the TGI in test [1], in test [3], in test [4], in test [5], in test [6] and in test [7] was greater than 100 µM in each case. Moreover, in test [8], the TGI was greater than 100 µM.
As to `CCOC(=O)c1cc(-c2ccc(OC)cc2)c([N+](=O)[O-])n1C`, the TGI in test [1], in test [4], in test [5], in test [6], in test [7] and in test [8] was greater than 10 µM throughout.
`COc1cc(S(=O)(=O)Nc2ccc(-c3csc(N4C(=O)CSC4c4cccc(Oc5ccccc5)c4)n3)cc2)ccc1Cl` (stereo unspecified): the TGI in test [1], in test [2], in test [4], in test [5], in test [6] and in test [7] was greater than 100 µM throughout. This compound registered a TGI in test [8] greater than 100 µM.
As to `C=C1c2nc3ccccc3n2C=C(c2ccc(OC)cc2)N1c1ccc(OC)cc1`, the TGI in test [1] came out at 58.5 µM; in test [2], 63.4 µM; in test [3] it was 24.3 µM; in test [5] it was 59 µM; in test [6], 48.4 µM; in test [7] it was 94.3 µM. For the same compound, the TGI in test [8] was determined as 24.4 µM.
With `COc1ccc(C2=CC(C(C)=C(C(N)=O)C(N)=O)C=C(c3ccc(Br)cc3)C2)c(OC)c1` (stereo unspecified), the TGI in test [1], in test [2], in test [3], in test [4], in test [5] and in test [7] was greater than 100 µM each time. Besides, in test [8], the TGI is greater than 100 µM.
For the compound `CCOC(=O)c1nnn(CCCCO)c1C(=O)OCC`, the TGI in test [1], in test [3], in test [4], in test [5], in test [6] and in test [7] was greater than 100 µM in each case. The TGI in test [8] is greater than 100 µM.
